“Also recorded” adds a separate entry of the source. Read-outs that look alike come from different tables or passages of the source.
What was measured:
Mdm4:p53 [1] = biological target: T1, Mdm4:p53 (Homo sapiens, UniProt O15151); assay: NanoBIT Mdm4:p53 PPI assay (transiently transfected CHO-K1 cells); type: cell-based; conditions: NanoBIT Mdm4:p53 (IC50, µM), small molecules, 10% (v/v) FCS
T1 sequence (O15151 1-490): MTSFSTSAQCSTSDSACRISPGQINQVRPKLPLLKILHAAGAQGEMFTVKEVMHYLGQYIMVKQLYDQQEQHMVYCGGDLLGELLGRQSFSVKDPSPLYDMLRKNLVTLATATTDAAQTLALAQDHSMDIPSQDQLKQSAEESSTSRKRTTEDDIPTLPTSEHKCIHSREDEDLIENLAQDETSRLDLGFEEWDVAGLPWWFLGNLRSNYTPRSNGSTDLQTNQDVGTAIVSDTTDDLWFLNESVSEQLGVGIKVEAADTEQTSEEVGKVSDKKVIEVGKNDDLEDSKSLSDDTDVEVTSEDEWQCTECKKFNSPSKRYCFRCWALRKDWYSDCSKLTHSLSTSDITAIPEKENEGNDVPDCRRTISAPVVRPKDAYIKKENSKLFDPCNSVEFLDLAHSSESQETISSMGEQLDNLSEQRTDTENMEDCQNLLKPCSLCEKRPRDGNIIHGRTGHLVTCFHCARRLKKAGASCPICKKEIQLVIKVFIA
Description: When LgBiT and SmBiT are optimally fused to two interacting proteins, in this case full-length Mdm2 and full-length p53, they will be brought sufficiently close to each other that they will reform the active luciferase and generate a luminescence signal.
For transient transfection experiments, 24 hours prior to transfection CHO cells were seeded at a cell density of 300,000 or 1200,000 cells respectively per well of a 6 well plate (ThermoFisher Scientific). […] After a 24 hour incubation, medium was removed and cells were washed with PBS saline. Transfected CHO-1 cells were trypsinised and re-suspended in Opti-MEM media with 0% FCS. […] 25 μl of a 20-fold dilution of Nano-Glo live cell substrate (Promega) in Nano-Glo dilution buffer (PROMEGA) was added to each well and the plate shaken for 1 min at 22 °C and luminescence assessed after additional 50 minutes as described previously[43]. All luminescence assay were carried out in triplicate and luciferase activity for each well was measured by Envision Multilabel plate reader (PerkinElmer). […]
Curve-fitting was carried out using Prism 4.0 (GraphPad). a was always constrained to the experimental value determined using the 1% DMSO (v/v) experimental control. After curve fitting the value determined for d was then verified to be in close agreement with the plateau of the titration.

p53:Mdm2 interaction = conditions: read-out: IC50, fluorescence polarization assay; cited from earlier work
CHO-K1 cells [2] = assay: LDH release assay (CytoTox); type: cell-based, Chinese hamster; conditions: Cricetulus griseus
Mdm4:p53 [3] = biological target: T2, Mdm4:p53 (Homo sapiens, UniProt O15151); assay: Bimodal FLUOPPI Mdm4:p53 PPI assay (pre-mixed stably transfected CHO-K1 cells, high-content imaging); type: cell-based; conditions: bimodal system; both treatment time points
T2 construct: the p53 (1–70) and Mdm4 (1–112) PPI was then cloned and fused to the FP and ASH tags
T2 sequence (O15151 1-112): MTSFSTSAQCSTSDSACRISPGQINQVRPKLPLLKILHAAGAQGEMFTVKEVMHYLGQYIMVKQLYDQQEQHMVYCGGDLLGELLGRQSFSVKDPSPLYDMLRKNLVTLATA
Description: Separate CHO-K1 lines stably expressing either Ash-p53:AG-Mdm2 or Ash-p53:MR-Mdm4 Fluoppi PPI pairs were established and maintained independently. To enable bimodal measurement both cell lines were pre-mixed in equal proportions and then used to seed 96 well plates for compound analysis. […] Plates were incubated overnight and cells were treated with PPI modulating drugs. […] Cells were also processed using a nuclear morphology filter. […] A minimum number of 500 foci were used to determine this value. Dose curves for each compound were then derived and used to calculate a corresponding IC50 value.
Two stable cell lines, 1A7-1 and 1B7-11 were mixed equally and seeded into poly-D-lysine black-wall 96-well plates (Corning) at a density of 20,000 cells/well and incubated for 24 hours at 37 °C in a 5% CO2 atmosphere. […] Green (AG), red (MR) and blue (Hoechst33342) or far-red (Draq5) fluorescence images were used to monitor p53-MDM2, p53-MDM4 and nuclei, respectively. […] To remove dead cells from analysis, only cells with a “nuclei roundness” score of more than 0.75 were counted. FLUOPPI values were calculated by dividing the total green or red fluorescence intensity of puncta by the number of AG-positive nuclei or MR-positive nuclei, respectively. […]

ASH-p53:AG-Mdm2 = biological target: T3, ASH-p53:AG-Mdm2 (Homo sapiens, UniProt Q00987); assay: Reversibility of FLUOPPI foci, transiently transfected ASH-p53:AG-Mdm2 CHO-K1 cells; type: cell-based
T3 construct: all eight possible combinations of p53 (1–70) and Mdm2 (1–119) were fused
T3 sequence (Q00987 1-119, looked up): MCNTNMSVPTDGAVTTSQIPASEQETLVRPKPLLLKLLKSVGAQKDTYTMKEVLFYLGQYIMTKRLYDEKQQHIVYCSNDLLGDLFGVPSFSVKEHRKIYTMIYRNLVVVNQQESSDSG
Description: All 8 possible interactions pairs for the Mdm2:p53 PPI were then co-expressed in CHO-K1 cells and then analysed for foci formation 24 hours post-transfection (Fig. 1B). To eliminate the possibility of non-specific interactions between the expression constructs giving rise to foci formation, negative control experiments were performed between the AG fluorescent tagged constructs and the non-fluorescent oligomerizing tag (ASH) by itself (Fig. 1C).
24 hours prior to transfection CHO-K1 cells were seeded at a cell density of 800,000 cells respectively per well of a 6 well plate (ThermoFisher Scientific). […] After a 24 hour incubation, medium was removed and cells were washed with PBS saline. Transfected CHO-K1 cells were trypsinised and re-suspended in Nutrient Mixture F-12 Ham (Ham's F-12) media (Sigma-Aldrich) supplemented with 10% FCS. Cells were then spun down at 1000 rpm for 5 minutes at room temperature. Supernatant was then discarded and cells re-suspended to a density of 200,000 cells per ml in Ham's F-12 media supplemented with 10% FCS. 100 μl of the resulting cell suspension was added to the wells of a black clear bottom 96-well plate. After a 24 hours incubation, the cell medium was replaced with fresh Ham's F-12 medium containing the indicated concentration of small molecule or stapled peptide and the stated FCS concentration. Final concentration of DMSO was 1% (v/v).

CHO-K1 cells [4] = system: CHO-K1 cells
CHO-K1 cells [5] = assay: cells; conditions: Cricetulus griseus, read-out: Viability (IC50, µM)
[6] = CHO-K1, 1 h, read-out: LDH Release (EC50, µM)

| Compound | IC50 (Mdm4:p53 [1]; 1 hour treatment) [µM] | IC50 (Mdm4:p53 [1]; 24 hour treatment) [µM] | IC50 (p53:Mdm2 interaction) [µM] | EC50 (CHO-K1 cells [2]; [6]) [µM] | EC50 (CHO-K1 cells [2]; CHO-K1, 4 h, read-out: Normalized LDH release, value printed beside curve) [µM] | inhibition of the p53:Mdm4 FLUOPPI PPI (in words) (Mdm4:p53 [3]) | disruption of Mdm2:p53 fluorescent foci (in words) (ASH-p53:AG-Mdm2) | effect on cellular viability (in words) (CHO-K1 cells [4]) | concentration with significant effects on cellular viability (arbitrarily defined as >25%) (CHO-K1 cells [4]; Chinese hamster) [µM] | IC50 (CHO-K1 cells [5]; CHO-K1, 1 h) [µM] | IC50 (CHO-K1 cells [5]; CHO-K1, 24 h) [µM] |
| --- | --- | --- | --- | --- | --- | --- | --- | --- | --- | --- | --- |
| CC(C)(C)C[C@@H]1N[C@@H](C(=O)N[C@H]2CC[C@H](O)CC2)[C@H](c2cccc(Cl)c2F)[C@]12C(=O)Nc1cc(Cl)ccc12 [MI-773] | 10.2 ± 1.6 | 2.7 | 0.00088 | 30 ± 6.2 | 30.6 ± 6.2 | negligible effect |  |  |  |  |  |
| COc1ccc(C2=N[C@@H](c3ccc(Cl)cc3)[C@@H](c3ccc(Cl)cc3)N2C(=O)N2CCNC(=O)C2)c(OC(C)C)c1 [Nutlin 3A] |  |  |  | 35.7 ± 6.2 |  |  | disrupted; also recorded: disruption of the fluorescent foci | significant decreases in cellular viability | > 25 | 34 ± 7 | 28.5 |
